Reference: article PMC7614775 (Nature chemical biology, 2022)

Experiments:
[1] = system: αCD3/αCD28-stimulated primary human T cells (IFNγ, IL-2 secretion); assay: Cytokine secretion of activated T cells (ELISA); type: cell-based; conditions: αCD3/αCD28 co-stimulation, 24 h
[2] = biological target: recombinant TYK2 (WT, C838A) (Homo sapiens, UniProt P29597); assay: Gel-based ABPP in 22Rv1 cells; type: binding; conditions: pre-treatment 0.01–1 μM, 2 h, in situ
[3] = system: αCD3/αCD28-stimulated primary human T cells (CD25, CD69); assay: T-cell activation analysis by flow cytometry; type: cell-based; conditions: 24 h
IL-12-STAT4 signaling = assay: Phospho-STAT western blot in mouse splenocytes; type: cell-based
[4] = biological target: recombinant purified JAK1 (aa 438 – 1154) (Homo sapiens, UniProt P23458); assay: In vitro kinase (peptide substrate, ADP-Glo) assay; type: biochemical
[5] = system: IFNα-stimulated human PBMCs; assay: Real-Time PCR of interferon-stimulated genes; type: cell-based; conditions: compound 2 h, then IFNα 16 h
JAK1_C817 [6] = biological target: T1, JAK1_C817 (Homo sapiens, UniProt P23458); assay: Untargeted cysteine MS-ABPP, human PBMC lysates treated in vitro; type: binding; conditions: PBMC lysate in vitro, 1 h
TOR4A_C21 = TOR4A_C21 (Homo sapiens, UniProt Q9NXH8); assay: Untargeted cysteine MS-ABPP, human PBMCs treated in situ; type: binding
[7] = system: IL-6-stimulated STAT3 phosphorylation; assay: Phospho-STAT western blot in 22Rv1 cells expressing JAK1 variants; type: cell-based, human
[8] = system: IFNα-stimulated STAT1 phosphorylation; assay: as above; type: cell-based, human
JAK1_C817 [9] = biological target: T1, JAK1_C817; assay: Untargeted cysteine MS-ABPP, human PBMCs treated in situ; type: binding
[10] = biological target: TYK2 phosphorylation (pTYK2) (Homo sapiens, UniProt P29597); assay: TYK2 phosphorylation western blot in 22Rv1 cells expressing TYK2 variants; type: cell-based; conditions: WT-TYK2
[11] = C817A-JAK1-expressing 22Rv1 cells, up to 2 µM
[12] = WT- or C810A-JAK1-expressing 22Rv1 cells, 2 µM, 2 h
[13] = WT- or C810A-JAK1-expressing 22Rv1 cells, at ~0.2 µM

T1 sequence (P23458 whole entry): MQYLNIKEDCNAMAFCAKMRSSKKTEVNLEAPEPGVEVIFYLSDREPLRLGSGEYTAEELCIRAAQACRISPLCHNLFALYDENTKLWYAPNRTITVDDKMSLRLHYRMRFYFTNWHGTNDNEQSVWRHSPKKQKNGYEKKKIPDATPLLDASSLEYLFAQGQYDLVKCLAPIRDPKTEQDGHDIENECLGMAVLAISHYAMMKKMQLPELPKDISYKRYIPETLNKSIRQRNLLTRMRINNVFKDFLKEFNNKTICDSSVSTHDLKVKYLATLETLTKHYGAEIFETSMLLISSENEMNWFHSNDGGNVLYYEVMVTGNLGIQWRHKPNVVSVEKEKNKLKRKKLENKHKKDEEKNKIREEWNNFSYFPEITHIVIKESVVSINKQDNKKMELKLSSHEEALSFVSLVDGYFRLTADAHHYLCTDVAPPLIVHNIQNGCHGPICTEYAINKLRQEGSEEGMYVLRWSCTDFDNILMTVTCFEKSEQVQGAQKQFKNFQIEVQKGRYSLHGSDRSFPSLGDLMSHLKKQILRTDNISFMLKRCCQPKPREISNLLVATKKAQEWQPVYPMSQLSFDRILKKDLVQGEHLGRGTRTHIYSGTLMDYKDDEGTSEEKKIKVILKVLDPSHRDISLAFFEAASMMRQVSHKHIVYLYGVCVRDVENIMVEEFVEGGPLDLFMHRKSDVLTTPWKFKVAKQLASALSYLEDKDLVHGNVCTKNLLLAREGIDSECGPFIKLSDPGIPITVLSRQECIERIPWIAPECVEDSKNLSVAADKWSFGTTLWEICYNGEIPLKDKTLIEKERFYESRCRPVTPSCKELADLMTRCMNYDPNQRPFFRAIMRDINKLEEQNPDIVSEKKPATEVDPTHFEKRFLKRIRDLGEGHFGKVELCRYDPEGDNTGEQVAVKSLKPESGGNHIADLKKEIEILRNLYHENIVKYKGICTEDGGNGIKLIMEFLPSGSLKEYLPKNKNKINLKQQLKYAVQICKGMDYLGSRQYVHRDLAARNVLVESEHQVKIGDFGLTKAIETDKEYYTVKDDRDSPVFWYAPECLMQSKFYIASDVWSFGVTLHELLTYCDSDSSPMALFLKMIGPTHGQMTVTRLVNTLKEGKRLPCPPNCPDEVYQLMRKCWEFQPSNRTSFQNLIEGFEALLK
TOR4A_C21, sequence (Q9NXH8 whole entry): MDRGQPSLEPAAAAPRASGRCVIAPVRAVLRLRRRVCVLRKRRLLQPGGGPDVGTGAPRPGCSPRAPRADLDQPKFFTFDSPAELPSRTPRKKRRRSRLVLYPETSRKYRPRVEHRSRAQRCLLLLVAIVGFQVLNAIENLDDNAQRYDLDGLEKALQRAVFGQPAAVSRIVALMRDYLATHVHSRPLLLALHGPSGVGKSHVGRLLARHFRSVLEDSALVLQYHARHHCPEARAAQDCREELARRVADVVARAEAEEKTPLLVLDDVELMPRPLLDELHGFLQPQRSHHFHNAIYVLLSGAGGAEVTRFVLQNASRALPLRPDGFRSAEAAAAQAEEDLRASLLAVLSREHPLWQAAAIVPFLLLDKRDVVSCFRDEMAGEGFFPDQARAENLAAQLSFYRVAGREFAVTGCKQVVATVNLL
recombinant purified JAK1 (aa 438 – 1154), sequence (P23458 438-1154): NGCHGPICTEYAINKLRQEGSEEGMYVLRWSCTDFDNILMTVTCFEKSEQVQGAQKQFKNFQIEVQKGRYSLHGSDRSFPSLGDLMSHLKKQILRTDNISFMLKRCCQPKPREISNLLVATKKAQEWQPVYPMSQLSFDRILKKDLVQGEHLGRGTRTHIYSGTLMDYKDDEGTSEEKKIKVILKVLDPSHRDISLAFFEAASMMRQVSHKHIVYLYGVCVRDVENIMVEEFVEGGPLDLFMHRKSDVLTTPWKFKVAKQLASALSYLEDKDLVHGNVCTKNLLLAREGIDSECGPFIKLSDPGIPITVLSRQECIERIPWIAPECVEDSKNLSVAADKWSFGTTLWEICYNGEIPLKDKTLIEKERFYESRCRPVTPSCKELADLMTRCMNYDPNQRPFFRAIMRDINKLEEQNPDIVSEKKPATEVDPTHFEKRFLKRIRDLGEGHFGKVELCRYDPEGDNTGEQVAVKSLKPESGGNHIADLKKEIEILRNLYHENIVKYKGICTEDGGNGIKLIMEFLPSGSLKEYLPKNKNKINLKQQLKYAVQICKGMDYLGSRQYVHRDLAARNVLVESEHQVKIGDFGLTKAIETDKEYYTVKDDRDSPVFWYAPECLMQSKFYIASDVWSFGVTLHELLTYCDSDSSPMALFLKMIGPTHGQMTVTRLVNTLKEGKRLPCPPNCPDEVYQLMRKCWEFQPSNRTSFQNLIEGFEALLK
recombinant TYK2 (WT, C838A), sequence (P29597 whole entry C838A): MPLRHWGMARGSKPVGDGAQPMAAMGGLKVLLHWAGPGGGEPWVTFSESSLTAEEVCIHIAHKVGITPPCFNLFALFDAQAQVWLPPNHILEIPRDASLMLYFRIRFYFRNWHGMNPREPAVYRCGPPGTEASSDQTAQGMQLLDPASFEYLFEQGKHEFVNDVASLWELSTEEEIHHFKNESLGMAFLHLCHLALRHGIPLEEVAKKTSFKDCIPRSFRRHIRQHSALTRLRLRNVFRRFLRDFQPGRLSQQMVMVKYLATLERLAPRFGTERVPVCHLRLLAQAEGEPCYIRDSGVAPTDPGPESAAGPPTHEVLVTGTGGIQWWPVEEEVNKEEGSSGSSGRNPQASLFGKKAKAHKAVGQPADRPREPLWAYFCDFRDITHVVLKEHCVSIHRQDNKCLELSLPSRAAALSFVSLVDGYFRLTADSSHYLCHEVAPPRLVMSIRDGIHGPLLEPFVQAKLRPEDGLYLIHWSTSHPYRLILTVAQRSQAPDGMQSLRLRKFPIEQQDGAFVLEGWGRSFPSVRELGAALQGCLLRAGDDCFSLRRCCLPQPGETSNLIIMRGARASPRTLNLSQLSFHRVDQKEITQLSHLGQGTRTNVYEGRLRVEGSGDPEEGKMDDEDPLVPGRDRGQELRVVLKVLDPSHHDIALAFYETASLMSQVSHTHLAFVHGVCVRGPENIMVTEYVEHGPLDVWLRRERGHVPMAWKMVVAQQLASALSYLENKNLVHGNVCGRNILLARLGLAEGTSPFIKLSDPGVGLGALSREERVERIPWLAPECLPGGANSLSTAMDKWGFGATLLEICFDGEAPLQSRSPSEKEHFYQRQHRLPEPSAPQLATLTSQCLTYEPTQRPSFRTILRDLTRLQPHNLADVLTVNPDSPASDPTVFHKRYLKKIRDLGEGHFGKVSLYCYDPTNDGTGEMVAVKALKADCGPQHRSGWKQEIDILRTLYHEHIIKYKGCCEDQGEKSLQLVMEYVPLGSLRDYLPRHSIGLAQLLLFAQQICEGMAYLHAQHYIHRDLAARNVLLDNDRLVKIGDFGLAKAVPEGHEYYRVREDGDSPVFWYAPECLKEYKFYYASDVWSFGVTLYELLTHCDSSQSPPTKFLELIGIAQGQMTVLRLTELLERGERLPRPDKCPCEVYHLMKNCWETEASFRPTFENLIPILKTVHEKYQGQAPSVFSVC
TYK2 phosphorylation (pTYK2), sequence (P29597 whole entry): as the sequence (P29597 whole entry C838A) above, with A838C counted along it

## CS(=O)(=O)N1CC[C@H](C#CC(=O)N2CCC[C@@H](c3ccc(Cl)c(Cl)c3)C2)C1 [VVD-118313]
[1]
  production of IL-2: slightly increased
  secretion of IFNγ: partially blocked
[2]
  competition of probe 6 reactivity with WT-TYK2: blocked probe 6 reactivity
[3]; 0.4 μM, representative flow cytometry plot
  CD25+ (% of live cells): 83%
[3]; αCD3/αCD28 co-stimulation
  T-cell activation (proportion of CD25+ T-cells): partially inhibited
  early-stage activation marker CD69: Neither compound affected
IL-12-STAT4 signaling
  effect on IL-12-STAT4 signaling: sparing
[4]; peptide substrate assay
  effect on catalytic activity of recombinant purified JAK1: did not inhibit
[4]; read-out: IC50, JAK1 substrate assay, 30 min preincubation, IRS-1 peptide, ATP 50 µM, 1 h
  IC50: > 50 µM
[5]
  induction of interferon-stimulated genes (OAS1, MX1, IFIT1, CCL2): blocked the induction
JAK1_C817 [6]; 0.01 µM
  %Engagement: 81%
  Engagement Ratio (DMSO/VVD-118313): 5.1
JAK1_C817 [6]; 0.1 µM
  %Engagement: 96%
  Engagement Ratio (DMSO/VVD-118313): 20.0
JAK1_C817 [6]; 1 µM
  %Engagement: 97%
  Engagement Ratio (DMSO/VVD-118313): 20.0
JAK1_C817 [6]; 10 µM
  %Engagement: 98%
  Engagement Ratio (DMSO/VVD-118313): 20.0
TOR4A_C21; 0.01 µM
  Engagement Ratio (DMSO/VVD-118313): 0.9
TOR4A_C21; 0.1 µM
  Engagement Ratio (DMSO/VVD-118313): 1.0
TOR4A_C21; 1 µM
  %Engagement: 65%
  Engagement Ratio (DMSO/VVD-118313): 2.9
TOR4A_C21; 10 µM
  %Engagement: 92%
  Engagement Ratio (DMSO/VVD-118313): 11.8
[7]; [11]
  inhibition of IL-6-STAT3 phosphorylation: < 10%
[7]; [12]
  effect on IL-6-stimulated pSTAT3: blocked
[7]; [13]
  maximal inhibition of IL-6-STAT3 phosphorylation: > 80%
[8]; [11]
  inhibition of IFNα-STAT1 phosphorylation: < 10%
[8]; [12]
  effect on IFNα-stimulated pSTAT1: blocked
[8]; [13]
  maximal inhibition of IFNα-STAT1 phosphorylation: > 80%
JAK1_C817 [9]; 0.01 µM
  %Engagement: 84%
  Engagement Ratio (DMSO/VVD-118313): 6.3
JAK1_C817 [9]; 0.1 µM
  Engagement Ratio (DMSO/VVD-118313): 20.0
JAK1_C817 [9]; 1 µM
  %Engagement: 96%
  Engagement Ratio (DMSO/VVD-118313): 20.0
JAK1_C817 [9]; 10 µM
  %Engagement: 97%
  Engagement Ratio (DMSO/VVD-118313): 20.0
[10]
  effect on phosphorylation of the TYK2 activation loop: inhibited
